{"source": "patent US20150175599A1", "about": "“FAAH Inhibitors” (Ironwood Pharmaceuticals, Inc., priority 2010, published 2015)", "key": {"FAAH": {"molecular_target": "T1, FAAH (Homo sapiens, UniProt O00519)", "T1 construct": "Reactions were initiated by adding 12.5 μg of brain microsome; tissue ABS, Inc; host or cells: human brain cerebral cortex, membrane/microsome fraction pooled from 3 donors", "T1 sequence (O00519 1-579)": "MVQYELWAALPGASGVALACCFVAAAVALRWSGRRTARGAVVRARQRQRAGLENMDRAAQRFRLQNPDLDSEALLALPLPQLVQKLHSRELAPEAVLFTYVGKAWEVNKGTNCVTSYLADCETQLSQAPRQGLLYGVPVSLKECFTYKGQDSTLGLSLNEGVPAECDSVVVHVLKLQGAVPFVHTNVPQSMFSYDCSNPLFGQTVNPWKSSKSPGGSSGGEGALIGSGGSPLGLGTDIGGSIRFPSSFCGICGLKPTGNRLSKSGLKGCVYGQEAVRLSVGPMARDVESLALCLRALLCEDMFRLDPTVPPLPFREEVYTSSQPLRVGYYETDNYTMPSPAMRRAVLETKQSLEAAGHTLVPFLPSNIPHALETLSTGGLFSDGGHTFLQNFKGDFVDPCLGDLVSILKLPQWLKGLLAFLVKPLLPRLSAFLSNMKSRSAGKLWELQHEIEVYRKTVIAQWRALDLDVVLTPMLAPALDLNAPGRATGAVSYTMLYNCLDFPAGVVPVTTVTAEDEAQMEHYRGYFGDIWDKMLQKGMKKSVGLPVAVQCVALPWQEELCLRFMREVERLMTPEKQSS", "assay": "FAAH inhibition, human brain membrane homogenate assay", "format": "biochemical", "conditions": "human brain homogenate; average activity; read-out: Human brain Extract FAAH IC50"}, "hERG channel": {"molecular_target": "T2, hERG channel (Homo sapiens, UniProt Q12809)", "T2 construct": "expressed in transfected cells; host or cells: CHO (hERG-CHO), under Geneticin selection", "T2 sequence (Q12809 whole entry)": "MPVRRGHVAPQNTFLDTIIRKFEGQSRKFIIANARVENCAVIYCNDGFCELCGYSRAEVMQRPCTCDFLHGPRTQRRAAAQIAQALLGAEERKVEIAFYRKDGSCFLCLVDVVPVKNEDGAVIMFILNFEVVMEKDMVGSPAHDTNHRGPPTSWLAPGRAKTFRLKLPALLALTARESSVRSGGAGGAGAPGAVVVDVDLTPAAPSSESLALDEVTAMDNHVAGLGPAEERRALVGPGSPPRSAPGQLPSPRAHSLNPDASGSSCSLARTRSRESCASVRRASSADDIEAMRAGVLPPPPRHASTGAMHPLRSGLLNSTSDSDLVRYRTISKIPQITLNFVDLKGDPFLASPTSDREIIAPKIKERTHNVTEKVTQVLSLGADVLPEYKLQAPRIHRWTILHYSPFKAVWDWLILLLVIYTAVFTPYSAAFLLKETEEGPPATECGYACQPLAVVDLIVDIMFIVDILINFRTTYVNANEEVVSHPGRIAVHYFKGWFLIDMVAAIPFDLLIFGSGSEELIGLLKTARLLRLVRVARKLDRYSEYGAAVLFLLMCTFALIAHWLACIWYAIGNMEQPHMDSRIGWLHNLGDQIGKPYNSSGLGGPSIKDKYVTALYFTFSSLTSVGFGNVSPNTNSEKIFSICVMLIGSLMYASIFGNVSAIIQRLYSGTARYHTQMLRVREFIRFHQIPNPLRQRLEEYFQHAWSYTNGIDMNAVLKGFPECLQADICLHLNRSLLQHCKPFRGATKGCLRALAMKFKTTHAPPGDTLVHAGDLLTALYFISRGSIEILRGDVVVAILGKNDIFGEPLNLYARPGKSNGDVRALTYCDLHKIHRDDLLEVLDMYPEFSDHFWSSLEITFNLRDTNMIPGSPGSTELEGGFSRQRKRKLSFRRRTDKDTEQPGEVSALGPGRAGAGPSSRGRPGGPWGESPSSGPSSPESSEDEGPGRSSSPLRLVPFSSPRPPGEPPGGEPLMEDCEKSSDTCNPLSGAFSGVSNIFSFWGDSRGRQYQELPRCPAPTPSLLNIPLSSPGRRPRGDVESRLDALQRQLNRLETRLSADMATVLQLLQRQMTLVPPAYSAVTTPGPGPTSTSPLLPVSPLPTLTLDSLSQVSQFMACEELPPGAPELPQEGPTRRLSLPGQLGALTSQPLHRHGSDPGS", "assay": "hERG channel inhibition, automated patch clamp (IonWorks HT, hERG-CHO)", "format": "cell-based", "conditions": "CHO cells expressing hERG, 600 s incubation", "procedure,_shortened": "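hERG-CHO cells held at 30 °C for 48 h before IonWorks HT patch clamp: from −80 mV to +40 for 2 s, then −50 mV for 2 s tail, repeated three times, before and after 600 s compound exposure. Third-pulse post/pre tail amplitude ratio gave percent inhibition; cells with seal <50 MOhm or tail <250 pA excluded.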"}, "[1]": {"assay": "Pharmacokinetic study, plasma level 2 hours after oral dosing in rats", "format": "in vivo", "procedure,_shortened": "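Rats dosed by oral gavage in 1% DMA/99% Vitamin E TPGS; EDTA plasma taken by retro-orbital bleed 2 h post-dose. Acetonitrile precipitation with internal standard, LC/MS/MS quantitation against plasma standards 0.1–3000 ng/mL.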"}}, "note": "pIC50: −log10 of the molar value."}
{"smiles": "COc1cc(NC(=O)C(=O)c2c(C)n(Cc3ncc(F)cc3F)c3cc(F)c(OC)cc23)ccn1", "note": "[Compound 101, 2-(1-((3,5-difluoropyridin-2-yl)methyl)-6-fluoro-5-methoxy-2-methyl-1H-indol-3-yl)-N-(2-methoxypyridin-4-yl)-2-oxoacetamide]", "values": [{"measurement": "pIC50", "setting": "FAAH", "result": "> 7.00"}, {"measurement": "inhibition at 600 s, 1 µM", "setting": "hERG channel; 1 μM compound, read-out: hERG Channel Inhibition % (at 1 μM), vehicle-subtracted values", "result": "< 25", "unit": "%"}, {"measurement": "inhibition at 600 s, 10 µM", "setting": "hERG channel; 10 μM compound, read-out: hERG Channel Inhibition % (at 10 μM), vehicle-subtracted values", "result": "< 25", "unit": "%"}, {"measurement": "2 hr plasma level-ng/mL (rat, 10 mg/kg PO, 2 hr)", "setting": "[1]", "result": "D (D = greater than 1000 nM)"}]}
